In the supplement of paper PMC11061612:

What was measured:
[1] = test system: NCI-H1666 (Lung Adenocarcinoma); test: Bliss excess, mean over the matrix (fraction); higher = more synergy
Method in brief: (§1)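 Cell lines in DMEM/F12 or RPMI with 10% FBS were plated in 1536-well plates, held 24 hours at 37°C, 5% CO2, then given two-drug dose matrices for 72 hours (DMSO typically 0.2%). Viability was read by CellTiter-Glo 2.0 luminescence and scaled as inhibition from 0 (vehicle wells) to 1 (blank wells). Combination Emax is the second-highest inhibition in the matrix; Bliss excess is observed combination effect minus expected EA + EB − EA·EB, EA and EB being single-agent effects.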

[2] = test system: COR-L311 (Small Cell Lung Carcinoma); test: as above
Method in brief: as §1

[3] = test system: NCI-H1693 (Lung Adenocarcinoma); test: as above
Method in brief: as §1

[4] = test system: NCI-H64 (Small Cell Lung Carcinoma); test: combination Emax (second highest fraction inhibited in the dose matrix, 72 h); higher = more inhibition; extreme values may be limits of the assay
Method in brief: as §1

[5] = test system: ECC10 (Gastric Carcinoma); test: as above
Method in brief: as §1

[6] = test system: CCK-81 (Colorectal Carcinoma); test: as above
Method in brief: as §1

[7] = test system: NCI-H1581 (Non-Small Cell Lung Carcinoma); test: as above
Method in brief: as §1

IGR-37 (Melanoma) = test: as above
Method in brief: as §1

[8] = test system: SK-MES-1 (Squamous Cell Lung Carcinoma); test: as above
Method in brief: as §1

[9] = test system: CAL-29 (Bladder Carcinoma); test: as above
Method in brief: as §1

[10] = test system: JSC-1 (B-Cell Non-Hodgkin's Lymphoma); test: as above
Method in brief: as §1

NY (Osteosarcoma) = test: as above
Method in brief: as §1

Hs-445 (Non-Cancerous) = test: as above
Method in brief: as §1

A498 (Kidney Carcinoma) = test: as above
Method in brief: as §1

[11] = test system: A549 (Lung Adenocarcinoma); test: as above
Method in brief: as §1

[12] = test system: HCC1954 (Breast Carcinoma); test: as above
Method in brief: as §1

ARH-77 (Non-Cancerous) = test: as above
Method in brief: as §1

[13] = test system: COR-L311 (Small Cell Lung Carcinoma); test: as above
Method in brief: as §1

[14] = test system: COLO-824 (Breast Carcinoma); test: as above
Method in brief: as §1

8-MG-BA (Glioblastoma) = test: as above
Method in brief: as §1
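Wherever Bliss excess, mean over the matrix is given: after 72 h of two-drug dosing.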

| Compound | Bliss excess [1] | Bliss excess [2] | Bliss excess [3] | combination Emax [4] | combination Emax [5] | combination Emax [6] | combination Emax [7] | combination Emax (IGR-37 (Melanoma)) | combination Emax [8] | combination Emax [9] | combination Emax [10] | combination Emax (NY (Osteosarcoma)) | combination Emax (Hs-445 (Non-Cancerous)) | combination Emax (A498 (Kidney Carcinoma)) | combination Emax [11] | combination Emax [12] | combination Emax (ARH-77 (Non-Cancerous)) | combination Emax [13] | combination Emax [14] | combination Emax (8-MG-BA (Glioblastoma)) |
| --- | --- | --- | --- | --- | --- | --- | --- | --- | --- | --- | --- | --- | --- | --- | --- | --- | --- | --- | --- | --- |
| CC1(C)CCC(CN2CCN(c3ccc(C(=O)NS(=O)(=O)c4ccc(NCC5CCOCC5)c([N+](=O)[O-])c4)c(Oc4cnc5[nH]ccc5c4)c3)CC2)=C(c2ccc(Cl)cc2)C1 [Venetoclax] + C[C@@H]1COCCN1C2=NC(=NC(=C2)C3(CC3)[S@](=N)(=O)C)C4=C5C=CNC5=NC=C4 [AZD6738] (first compound max 1 µM, 7x7, partner max 10 µM) | -0.0405 | -0.0291 | -0.0147 | 0.882 | 0.98 | 0.846 | 0.451 | 0.793 | 0.75 | 0.689 | 0.882 | 0.708 | 0.99 | 0.514 | 0.716 | 0.55 | 0.961 | 0.694 | 0.944 | 0.792 |
| CC1(C)CCC(CN2CCN(c3ccc(C(=O)NS(=O)(=O)c4ccc(NCC5CCOCC5)c([N+](=O)[O-])c4)c(Oc4cnc5[nH]ccc5c4)c3)CC2)=C(c2ccc(Cl)cc2)C1 [Venetoclax] + C[C@@H](Nc1cc(F)cc(F)c1)c1cc(C(=O)N(C)C)cc2c(=O)cc(N3CCOCC3)oc12 [AZD8186] (first compound max 1 µM, 7x7, partner max 3 µM) | -0.0705 | 0.0257 | -0.034 | 0.335 | 0.969 | 0.0792 | 0.182 | 0.46 | 0.257 | 0.113 | 0.0196 | 0.616 | 0.612 | 0.632 | 0.471 | 0.0913 | 0.724 | 0.768 | 0.921 | 0.133 |
| CC1(C)CCC(CN2CCN(c3ccc(C(=O)NS(=O)(=O)c4ccc(NCC5CCOCC5)c([N+](=O)[O-])c4)c(Oc4cnc5[nH]ccc5c4)c3)CC2)=C(c2ccc(Cl)cc2)C1 [Venetoclax] + Cc1cc2ncnn2cc1Nc1ncc2c(n1)n(C1CCOCC1)c(=O)n2C [AZD7648] (first compound max 1 µM, 7x7, partner max 10 µM) | -0.0821 | 0.0472 | 0.0211 | 0.255 | 0.955 | 0.173 | 0.222 | 0.556 | 0.155 | 0.209 | 0.205 | 0.578 | 0.405 | 0.381 | 0.436 | 0.336 | 0.559 | 0.671 | 0.766 | 0.133 |
| CC1(C)CCC(CN2CCN(c3ccc(C(=O)NS(=O)(=O)c4ccc(NCC5CCOCC5)c([N+](=O)[O-])c4)c(Oc4cnc5[nH]ccc5c4)c3)CC2)=C(c2ccc(Cl)cc2)C1 [Venetoclax] + Cn1cnc2c(F)c(Nc3ccc(Br)cc3Cl)c(C(=O)NOCCO)cc21 [Selumetinib] (first compound max 1 µM, 7x7, partner max 3 µM) | 0.025 | -0.0367 | -0.0396 | 0.239 | 0.937 | 0.369 | 0.32 | 0.879 | 0.345 | 0.245 | 0.271 | 0.485 | 0.395 | 0.433 | 0.611 | 0.186 | 0.369 | 0.635 | 0.829 | 0.124 |
